Source: patent US20080166805A1, “Culturing human cells and tissues in an N-glycolylneuraminic acid-free environment” (The Regents of the University of California, priority 2005, published 2008)

Assays:
[1] = system: human LB EBV-transformed lymphoblasts; test: Neu5Gc/Neu5Ac feeding experiment, human EBV-transformed lymphoblasts; type: cell-based; conditions: human lymphoblasts fed 3 mM Neu5Ac for 3 days
Protocol: (§1) Cell Culture—Caco-2 cells were propagated in alpha-MEM containing GLUTAMAX™ (Invitrogen, San Diego, Calif.) and a mixture of ribonucleosides and deoxyribonucleosides (Gibco/Invitrogen, San Diego, Calif.) supplemented with 20% FCS. All the fibroblast cell lines and CHO-K1 cells were cultured in the same media supplemented respectively with 15% non-heat inactivated FCS or 10% heat inactivated FCS. Chimpanzee Fred and human […] EBV-transformed lymphoblasts were cultured in RPMI-1640 (Gibco/Invitrogen, San Diego, Calif.) supplemented with 10% heat inactivated FCS or 15% human serum. All of the cultures were maintained at 37° C., 5% CO2 atmosphere. In order to deplete any remaining Neu5Gc from FCS, the cells were split and cultured prior to Neu5Gc feeding experiments for at least 4 days in alpha-MEM supplemented with an adequate percentage of heat-inactivated premium human serum instead of FCS. The cells were then maintained under the same conditions during the whole feeding experiment. The human serum was heat inactivated at 56° C. for 30 min. before use.
(§2) Neu5Gc and ManNGc Feeding Experiment—Neu5Ac, Neu5Gc or ManNGc were dried, dissolved in the appropriate media supplemented with heat-inactivated human serum, sterilized using a Spin-X® (Corning Inc., Corning, N.Y.) and then added to the cells. The pH of the media containing Sia was adjusted to neutrality using sterilized 1M NaOH before starting the feeding experiment. Cells were cultured in the presence of up to 3 mM free Sia or ManNGc for 1 or 3 days at 37° C. […]
(§3) Fractionation of the Labeled Cells—Washed cell pellets were sonicated into 500 μL of 20 mM sodium phosphate buffer or 20 mM Tris-HCl, pH 7.5, using 4×15 second pulses of a sonicator cell disrupter, model Some Dismembrator (Fisher Scientific, Hampton, N.J.) at a probe setting of 3. […] The pellet contained <5% of the incorporated sialic acid as determined using a radioactive tracer (data not shown.) The supernatant was therefore considered as the “total homogenate” fraction. A portion (20%) of the “total homogenate” fraction was taken for protein quantification and Sia analysis by DMB derivatization and HPLC analysis (as discussed below.) The remainder was centrifuged at 100,000×g for 1 h. […] All the Sias in these fractions were released with mild acid hydrolysis if necessary and then analyzed by HPLC after DMB derivatization. Protein quantification was performed on the total homogenate, membrane and soluble protein fractions by using the BCA protein assay kit from Pierce (Rockford, Ill.) In some experiments, the resulting data obtained for the Sia bound to the membrane fraction and to the soluble proteins were pooled and presented here as a High Molecular Weight (HMW) fraction. […]

[2] = system: chimpanzee lymphoblasts; test: Neu5Gc/Neu5Ac feeding experiment, chimpanzee EBV-transformed lymphoblasts; type: cell-based; conditions: chimpanzee lymphoblasts fed 3 mM Neu5Ac for 3 days
Protocol: as §1, §2, §3

[3] = system: Caco-2 cells; test: Competition of free Neu5Ac with free Neu5Gc for incorporation into Caco-2 cells; type: cell-based, human
Protocol: Neu5Gc and ManNGc Feeding Experiment—Neu5Ac, Neu5Gc or ManNGc were dried, dissolved in the appropriate media supplemented with heat-inactivated human serum, sterilized using a Spin-X® (Corning Inc., Corning, N.Y.) and then added to the cells. The pH of the media containing Sia was adjusted to neutrality using sterilized 1M NaOH before starting the feeding experiment. Cells were cultured in the presence of up to 3 mM free Sia or ManNGc for 1 or 3 days at 37° C. At the end of the feeding, cells were washed with cold PBS, harvested either by scraping or with 2 mM EDTA for fibroblasts, and washed again with cold PBS prior to fractionation.
Fractionation of the Labeled Cells—Washed cell pellets were sonicated into 500 μL of 20 mM sodium phosphate buffer or 20 mM Tris-HCl, pH 7.5, using 4×15 second pulses of a sonicator cell disrupter, model Some Dismembrator (Fisher Scientific, Hampton, N.J.) at a probe setting of 3. The sonicate was centrifuged at 75×g for 15 min., and the pellet obtained consisted primarily of nuclei and unbroken cells. The pellet contained <5% of the incorporated sialic acid as determined using a radioactive tracer (data not shown.) The supernatant was therefore considered as the “total homogenate” fraction. A portion (20%) of the “total homogenate” fraction was taken for protein quantification and Sia analysis by DMB derivatization and HPLC analysis (as discussed below.) The remainder was centrifuged at 100,000×g for 1 h. The resulting pellet, called the “membrane” fraction, was then resuspended by sonication (15 sec.) in 200 μl of sodium acetate buffer, pH 5.5. The 100,000×g supernatant, called the “soluble” fraction was adjusted to 90% ethanol using absolute ice-cold ethanol, and placed overnight at −20° C. The flocculant precipitate, which represents the “soluble protein” fraction, was washed 3 times with 90% ice-cold ethanol and then resuspended in 200 μl of water. The supernatant fluid representing the cytosolic low molecular weight (LMW) fraction was dried and brought up in 100 μL with water prior to Sia analysis. All the Sias in these fractions were released with mild acid hydrolysis if necessary and then analyzed by HPLC after DMB derivatization. Protein quantification was performed on the total homogenate, membrane and soluble protein fractions by using the BCA protein assay kit from Pierce (Rockford, Ill.) In some experiments, the resulting data obtained for the Sia bound to the membrane fraction and to the soluble proteins were pooled and presented here as a High Molecular Weight (HMW) fraction.
Sialic Acid Release, DMB Derivatization and HPLC Analysis—The bound Sias from the total homogenate, membrane and soluble protein fractions were released using 2M acetic acid hydrolysis, 3 h. at 80° C. The released Sias, or free Sias, contained in the soluble LMW fraction were passed through a Microcon® YM-10 filter (Millipore, Bedford, Mass.) prior to DMB derivatization, which was done according to Hara et al., 1989. DMB-Sia derivatives from the different fractions were then analyzed by HPLC using a C18 column (Microsorb Mv-TM 100 A, Varian, Palo Alto, Calif.) Isocratic elution was achieved using 7% methanol, 8% acetonitrile in water during 50 min. at 0.9 ml/min flow. The eluant was monitored by fluorescence.
Quantification of Sias—For all HPLC chromatograms, the quantification of Sias was done by comparison with known quantities of DMB derivatized Neu5Gc and Neu5Ac used as standards and then reported in terms of pmoles of Sia. For total homogenate, membrane and cytosolic protein fractions, this number was expressed per mg of protein. Due to minor sample-to-sample variations in amounts and recoveries, the data in the Figures is presented as percent of Neu5Gc over total Sias, rather than as absolute amounts.

[4] = 3 mM Neu5Gc for 3 days in the presence of 15 mM Neu5Ac

CC(=O)N[C@H]1[C@H]([C@H](O)[C@H](O)CO)OC(O)(C(=O)O)C[C@@H]1O (stereo partly drawn) [Neu5Ac, N-acetylneuraminic acid]
Neu5Gc content of the fractions [1]: almost no detectable Neu5Gc
change of percentages of Neu5Gc in the different fractions [2]: changed only minimally
Neu5Gc as percent of total Sia, TH ([3]; 3 mM Neu5Gc for 3 days in the presence of 3 mM Neu5Ac): 48%
Neu5Gc as percent of total Sia, TH [3, 4]: 35%
Neu5Gc as percent of total Sia, membrane-bound fraction [3, 4]: almost to zero
Neu5Gc as percent of total Sia, membrane-bound fraction ([3]; 3 mM Neu5Gc for 3 days with 3 mM Neu5Ac): 29.9%
